Assay results taken from ChEMBL document CHEMBL3045802, “Synthesis and in vitro antitumor activity of new quinoline, pyrimido[4,5-b]quinoline, [1,2,3]triazino[4,5-b]quinoline, and [1,2,4]triazolo[2,3:3,4]pyrimido[6,5-b]quinoline analogs” (2013).

How the values were obtained:
Assay type in all cases: functional
HT-29 = assay: Cytotoxicity against Homo sapiens (human) HT-29 cells assessed as growth inhibition at 10 uM after 48 hr by coulter counter analysis; settings: HT-29, 48 h, read-out: GI
UACC-257 = assay: Cytotoxicity against Homo sapiens (human) UACC257 cells assessed as growth inhibition at 10 uM after 48 hr by coulter counter analysis; settings: UACC-257, 48 h, read-out: GI
SF-295 = assay: Cytotoxicity against Homo sapiens (human) SF295 cells assessed as growth inhibition at 10 uM after 48 hr by coulter counter analysis; settings: SF-295, 48 h, read-out: GI
786-0 = assay: Cytotoxicity against Homo sapiens (human) 786-0 cells assessed as growth inhibition at 10 uM after 48 hr by coulter counter analysis; settings: 786-0, 48 h, read-out: GI
MCF7 = assay: Cytotoxicity against Homo sapiens (human) MCF7 cells assessed as growth inhibition at 10 uM after 48 hr by coulter counter analysis; settings: MCF7, 48 h, read-out: GI
HOP-92 = assay: Cytotoxicity against Homo sapiens (human) HOP92 cells assessed as growth inhibition at 10 uM after 48 hr by coulter counter analysis; settings: HOP-92, 48 h, read-out: GI
RXF 393 = assay: Cytotoxicity against Homo sapiens (human) RXF393 cells assessed as growth inhibition at 10 uM after 48 hr by coulter counter analysis; settings: RXF 393, 48 h, read-out: GI
OVCAR-4 = assay: Cytotoxicity against Homo sapiens (human) OVCAR4 cells assessed as growth inhibition at 10 uM after 48 hr by coulter counter analysis; settings: OVCAR-4, 48 h, read-out: GI
SK-MEL-2 = assay: Cytotoxicity against Homo sapiens (human) SK-MEL-2 cells assessed as growth inhibition at 10 uM after 48 hr by coulter counter analysis; settings: SK-MEL-2, 48 h, read-out: GI
SF-539 = assay: Cytotoxicity against Homo sapiens (human) SF539 cells assessed as growth inhibition at 10 uM after 48 hr by coulter counter analysis; settings: SF-539, 48 h, read-out: GI
A498 = assay: Cytotoxicity against Homo sapiens (human) A498 cells assessed as growth inhibition at 10 uM after 48 hr by coulter counter analysis; settings: A498, 48 h, read-out: GI
SR = assay: Cytotoxicity against Homo sapiens (human) SR cells assessed as growth inhibition at 10 uM after 48 hr by coulter counter analysis; settings: read-out: GI
NCI-H226 = assay: Cytotoxicity against Homo sapiens (human) NCI-H226 cells assessed as growth inhibition at 10 uM after 48 hr by coulter counter analysis; settings: NCI-H226, 48 h, read-out: GI
[1] = Cytotoxicity against Homo sapiens (human) NCI-ADR-RES cells assessed as growth inhibition at 10 uM after 48 hr by coulter counter analysis; settings: read-out: GI
RPMI-8226 = assay: Cytotoxicity against Homo sapiens (human) RPMI8226 cells assessed as growth inhibition at 10 uM after 48 hr by coulter counter analysis; settings: RPMI-8226, 48 h, read-out: GI
SNB-19 = assay: Cytotoxicity against Homo sapiens (human) SNB19 cells assessed as growth inhibition at 10 uM after 48 hr by coulter counter analysis; settings: SNB-19, 48 h, read-out: GI
SK-MEL-28 = assay: Cytotoxicity against Homo sapiens (human) SK-MEL-28 cells assessed as growth inhibition at 10 uM after 48 hr by coulter counter analysis; settings: SK-MEL-28, 48 h, read-out: GI
CAKI-1 = assay: Cytotoxicity against Homo sapiens (human) Caki1 cells assessed as growth inhibition at 10 uM after 48 hr by coulter counter analysis; settings: CAKI-1, 48 h, read-out: GI
MDA-MB-435 = assay: Cytotoxicity against Homo sapiens (human) MDA-MB-435 cells assessed as growth inhibition at 10 uM after 48 hr by coulter counter analysis; settings: MDA-MB-435, 48 h, read-out: GI
OVCAR-5 = assay: Cytotoxicity against Homo sapiens (human) OVCAR5 cells assessed as growth inhibition at 10 uM after 48 hr by coulter counter analysis; settings: OVCAR-5, 48 h, read-out: GI
IGROV-1 = assay: Cytotoxicity against Homo sapiens (human) IGROV1 cells assessed as growth inhibition at 10 uM after 48 hr by coulter counter analysis; settings: IGROV-1, 48 h, read-out: GI
SF-268 = assay: Cytotoxicity against Homo sapiens (human) SF268 cells assessed as growth inhibition at 10 uM after 48 hr by coulter counter analysis; settings: SF-268, 48 h, read-out: GI
HL-60(TB) = assay: Cytotoxicity against Homo sapiens (human) HL-60(TB) cells assessed as growth inhibition at 10 uM after 48 hr by coulter counter analysis; settings: HL-60, 48 h, read-out: GI
OVCAR-3 = assay: Cytotoxicity against Homo sapiens (human) OVCAR3 cells assessed as growth inhibition at 10 uM after 48 hr by coulter counter analysis; settings: OVCAR-3, 48 h, read-out: GI
PC-3 = assay: Cytotoxicity against Homo sapiens (human) PC3 cells assessed as growth inhibition at 10 uM after 48 hr by coulter counter analysis; settings: PC-3, 48 h, read-out: GI
OVCAR-8 = assay: Cytotoxicity against Homo sapiens (human) OVCAR8 cells assessed as growth inhibition at 10 uM after 48 hr by coulter counter analysis; settings: OVCAR-8, 48 h, read-out: GI
UO-31 = assay: Cytotoxicity against Homo sapiens (human) UO31 cells assessed as growth inhibition at 10 uM after 48 hr by coulter counter analysis; settings: UO-31, 48 h, read-out: GI
HCC 2998 = assay: Cytotoxicity against Homo sapiens (human) HCC2998 cells assessed as growth inhibition at 10 uM after 48 hr by coulter counter analysis; settings: HCC 2998, 48 h, read-out: GI
HCT-15 = assay: Cytotoxicity against Homo sapiens (human) HCT15 cells assessed as growth inhibition at 10 uM after 48 hr by coulter counter analysis; settings: HCT-15, 48 h, read-out: GI
HOP-62 = assay: Cytotoxicity against Homo sapiens (human) HOP62 cells assessed as growth inhibition at 10 uM after 48 hr by coulter counter analysis; settings: HOP-62, 48 h, read-out: GI
COLO 205 = assay: Cytotoxicity against Homo sapiens (human) COLO205 cells assessed as growth inhibition at 10 uM after 48 hr by coulter counter analysis; settings: COLO 205, 48 h, read-out: GI
M14 = assay: Cytotoxicity against Homo sapiens (human) M14 cells assessed as growth inhibition at 10 uM after 48 hr by coulter counter analysis; settings: M14, 48 h, read-out: GI
T47D = assay: Cytotoxicity against Homo sapiens (human) T47D cells assessed as growth inhibition at 10 uM after 48 hr by coulter counter analysis; settings: read-out: GI

SMILES | inhibition of growth at 10 µM (HT-29) | inhibition of growth at 10 µM (UACC-257) | inhibition of growth at 10 µM (SF-295) | inhibition of growth at 10 µM (786-0) | inhibition of growth at 10 µM (MCF7) | inhibition of growth at 10 µM (HOP-92) | inhibition of growth at 10 µM (RXF 393) | inhibition of growth at 10 µM (OVCAR-4) | inhibition of growth at 10 µM (SK-MEL-2) | inhibition of growth at 10 µM (SF-539) | inhibition of growth at 10 µM (A498) | inhibition of growth at 10 µM (SR) | inhibition of growth at 10 µM (NCI-H226) | inhibition of growth at 10 µM [1] | inhibition of growth at 10 µM (RPMI-8226) | inhibition of growth at 10 µM (SNB-19) | inhibition of growth at 10 µM (SK-MEL-28) | inhibition of growth at 10 µM (CAKI-1) | inhibition of growth at 10 µM (MDA-MB-435) | inhibition of growth at 10 µM (OVCAR-5) | further results
COc1ccc(C2C3=C(CCCC3)Nc3nc(CC#N)[nH]c(=O)c32)cc1OC (stereo unspecified) | < 10% | < 10% | < 10% | < 10% | < 10% | < 10% | < 10% | < 10% | < 10% | < 10% | < 10% | < 10% | 11.3% | < 10% | < 10% | < 10% | < 10% | < 10% | < 10% | < 10% | inhibition of growth at 10 µM (IGROV-1): < 10%; inhibition of growth at 10 µM (SF-268): < 10%; inhibition of growth at 10 µM (HL-60(TB)): < 10%; inhibition of growth at 10 µM (OVCAR-3): < 10%; inhibition of growth at 10 µM (PC-3): < 10%; inhibition of growth at 10 µM (OVCAR-8): < 10%; inhibition of growth at 10 µM (UO-31): 26.9%; inhibition of growth at 10 µM (HCC 2998): < 10%; inhibition of growth at 10 µM (HCT-15): < 10%; inhibition of growth at 10 µM (HOP-62): < 10%; inhibition of growth at 10 µM (COLO 205): < 10%; inhibition of growth at 10 µM (M14): < 10%; inhibition of growth at 10 µM (T47D): < 10%
O=c1[nH]c(-c2ccccc2)nc2c1C(c1ccc(Cl)cc1)C1=C(CCCC1)N2 (stereo unspecified) | < 10% | < 10% | < 10% | < 10% | < 10% | 12% | < 10% | < 10% | < 10% | < 10% | 11.4% | < 10% | 12.3% | < 10% | < 10% | < 10% | < 10% | < 10% | < 10% | < 10% | inhibition of growth at 10 µM (IGROV-1): < 10%; inhibition of growth at 10 µM (SF-268): < 10%; inhibition of growth at 10 µM (HL-60(TB)): < 10%; inhibition of growth at 10 µM (OVCAR-3): < 10%; inhibition of growth at 10 µM (PC-3): < 10%; inhibition of growth at 10 µM (OVCAR-8): < 10%; inhibition of growth at 10 µM (UO-31): 43.3%; inhibition of growth at 10 µM (HCC 2998): < 10%; inhibition of growth at 10 µM (HCT-15): < 10%; inhibition of growth at 10 µM (HOP-62): < 10%; inhibition of growth at 10 µM (COLO 205): < 10%; inhibition of growth at 10 µM (M14): < 10%; inhibition of growth at 10 µM (T47D): 15.5%
